Consider twelve compounds from US20240400553A1, “AMINE BASED MATRIPTASE 2 INHIBITORS AND USES THEREOF” (Disc Medicine, Inc., priority 2023, published 2024).

pKi: −log10 of the molar value.

The target of this experiment is T1, Human Recombinant Matriptase 2 (Homo sapiens, UniProt Q8IU80).
T1 construct: made in house
T1 sequence (Q8IU80 1-811): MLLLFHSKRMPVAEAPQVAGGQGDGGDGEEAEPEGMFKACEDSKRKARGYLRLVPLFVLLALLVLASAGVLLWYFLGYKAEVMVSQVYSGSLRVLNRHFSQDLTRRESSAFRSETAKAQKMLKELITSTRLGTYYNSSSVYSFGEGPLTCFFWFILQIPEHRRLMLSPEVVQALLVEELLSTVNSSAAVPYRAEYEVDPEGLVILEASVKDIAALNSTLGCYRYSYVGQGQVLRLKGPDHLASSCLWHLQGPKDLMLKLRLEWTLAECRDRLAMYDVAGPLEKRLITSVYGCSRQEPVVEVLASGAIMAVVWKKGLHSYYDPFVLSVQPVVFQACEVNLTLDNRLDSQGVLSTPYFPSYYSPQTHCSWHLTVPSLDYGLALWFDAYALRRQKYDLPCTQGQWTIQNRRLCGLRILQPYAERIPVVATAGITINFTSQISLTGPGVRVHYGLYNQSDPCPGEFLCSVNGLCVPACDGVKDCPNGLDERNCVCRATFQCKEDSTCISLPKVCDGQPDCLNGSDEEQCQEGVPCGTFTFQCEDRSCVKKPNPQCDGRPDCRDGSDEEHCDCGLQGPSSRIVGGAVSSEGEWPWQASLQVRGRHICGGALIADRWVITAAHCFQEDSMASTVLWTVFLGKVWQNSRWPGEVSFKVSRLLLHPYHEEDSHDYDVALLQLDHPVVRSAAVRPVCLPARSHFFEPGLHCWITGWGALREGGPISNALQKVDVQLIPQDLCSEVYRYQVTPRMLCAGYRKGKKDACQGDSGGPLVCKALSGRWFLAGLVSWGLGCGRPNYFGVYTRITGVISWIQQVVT
Description: Matriptase 2 inhibition, fluorescence based assay (Method I). Format: biochemical. Conditions: Table A; Ki of Matriptase-2 given as class symbols; read-out: Mat-2 Ki. In a few lines: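 Fluorogenic readout (Ex 360/Em 480 nm) taken 60 min after adding 62 μM Boc-Gln-Ala-Arg-AMC, following 30-min enzyme–compound preincubation at 25 °C. Conditions: 3.5 nM in-house enzyme, pH 7.5 Tris/NaCl/gelatin buffer, 1% DMSO; percent inhibition versus concentration fitted by variable-slope sigmoidal regression.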
Broadly, the pKi is −log10 of the Ki, conventionally taken in molar units. `Cc1cc(CS(=O)(=O)Nc2cc(Cn3c(C(=O)O)cc4ccc(CN)nc43)c3ccccc3c2)no1` [Compound 250, 6-(aminomethyl)-1-({3-[(5-methyl-1,2-oxazol-3-yl)methanesulfon-amido]naphthalen-1-yl}-methyl)-1H-pyrrolo[2,3-b]pyridine-2-carboxylic acid]: the pKi was 5.52 to 6.30.

`NCc1ccc2cc(C(=O)O)n(Cc3cc(NS(=O)(=O)Cc4c(Cl)cccc4Cl)cc4ccccc34)c2n1` [Compound 251, 6-(aminomethyl)-1-({3-[(2,6-dichlorophenyl)-methanesulfonamido]-naphthalen-1-yl}methyl)-1H-pyrrolo[2,3-b]pyr-idine-2-carboxylic acid]: the pKi was 5.52 to 6.30.

Regarding `NCc1ccc2cc(C(=O)O)n(Cc3cc(CS(=O)(=O)Cc4ccccc4)cc4ccccc34)c2n1` [Compound 252, 6-(aminomethyl)-1-{[3-(phenylmethanesulfon-ylmethyl)naphthalen-1-yl]methyl}-1H-pyrrolo-[2,3-b]pyridine-2-car-boxylic acid], the pKi is 5.52 to 6.30.

Consider `COCCN1CCC(CS(=O)(=O)Nc2cc(Cn3c(C(=O)OCC4CCN(C)CC4)cc4ccc(CN)nc43)c3ccccc3c2)CC1` [Compound 253], for which the pKi was 5.52 to 6.30.

In the case of `Cc1nc(CS(=O)(=O)Nc2cc(Cn3c(C(=O)O)cc4ccc(CN)nc43)c3ccccc3c2)cs1` [Compound 256, 6-(aminomethyl)-1-({3-[(2-methyl-1,3-thiazol-4-yl)methanesulfon-amido]naphthalen-1-yl}-methyl)-1H-pyrrolo[2,3-b]pyridine-2-carboxylic acid], the pKi is 6.30 to 7.00.

Consider `COC(=O)NCCNC(=O)c1cc2ccc(CN)nc2n1Cc1cc(NS(=O)(=O)CC[C@@H]2CCCN2)cc2ccccc12` [Compound 258, methyl N-(2-{[6-(amino-methyl)-1-[(3-{2-[(2S)-pyrrolidin-2-yl]ethane-sulfonamido}naphthalen-1-yl)methyl]-1H-pyr-rolo[2,3-b]pyridin-2-yl]-formamido}ethyl)car-bamate], for which the pKi was 6.30 to 7.00.

`NCc1ccc2cc(C(=O)O)n(Cc3cc(NS(=O)(=O)[C@H]4CCNC4)cc4ccccc34)c2n1` [Compound 259, 6-(aminomethyl)-1-({3-[(3S)-pyrrolidine-3-sul-fonamido]naphthalen-1-yl}methyl)-1H-pyrrolo-[2,3-b]pyridine-2-car-boxylic acid]: the pKi was 6.30 to 7.00.

For the compound `NCc1ccc2cc(C(=O)OCCO)n(Cc3cc(NS(=O)(=O)CC[C@@H]4CCCN4)cc4ccccc34)c2n1` [Compound 260, 2-hydroxyethyl 6-(aminomethyl)-1-[(3-{2-[(2S)-pyrrolidin-2-yl]-ethanesulfonamido}naph-thalen-1-yl)methyl]-1H-pyrrolo[2,3-b]pyridine-2-carboxylate], the pKi is 6.30 to 7.00.

Consider `NCc1ccc2cc(C(=O)O)n(Cc3cc(NS(=O)(=O)CCCn4cnnn4)cc4ccccc34)c2n1` [Compound 264, 6-(aminomethyl)-1-({3-[3-(1H-1,2,3,4-tetrazol-1-yl)propanesulfonamido]-naphthalen-1-yl}methyl)-1H-pyrrolo[2,3-b]pyr-idine-2-carboxylic acid], for which the negative-log Ki (pKi) was 6.30 to 7.00.

With `CCN(CC)CCS(=O)(=O)Nc1cc(Cn2c(C(=O)O)cc3ccc(CN)nc32)c2ccccc2c1` [Compound 265, 6-(aminomethyl)-1-({3-[2-(diethylamino)ethane-sulfonamido]naphthalen-1-yl}methyl)-1H-pyr-rolo[2,3-b]pyridine-2-carboxylic acid], the pKi was 6.30 to 7.00.

In the case of `CC(C)(C)S(=O)(=O)N1CCC(CS(=O)(=O)Nc2cc(Cn3c(C(=O)O)cc4ccc(CN)nc43)c3ccccc3c2)CC1` [Compound 267, 6-(aminomethyl)-1-[(3-{[1-(2-methylpropane-2-sulfonyl)piperidin-4-yl]-methanesulfonamido}-naphthalen-1-yl)methyl]-1H-pyrrolo[2,3-b]pyr-idine-2-carboxylic acid], the pKi is 6.30 to 7.00.

Turning to `CC(C)(C)OC(=O)N1CC[C@H](S(=O)(=O)Nc2cc(Cn3c(C(=O)O)cc4ccc(CN)nc43)c3ccccc3c2)C1` [Compound 268], the pKi was 6.30 to 7.00.
